In patent US7973075B2, “Kainate receptor-selective epimeric analogs of dysiherbaine” (priority 2007, dated 2011):
pIC50, pKi: −log10 of the molar value. “Also recorded” adds a separate entry of the source.

Tests used:
GluR6a = biological target: T1, GluR6a (Rattus norvegicus, UniProt P42260); test: Whole-cell patch clamp recordings, transfected HEK-293-T/17 cells, Example 2; assay type: cell-based; settings: for agonist activity: analog-evoked currents from GluR6a receptors (words): 1 s test application of the analog at a high concentration (50-100 μM)
T1 construct: expressed in transfected cells; host or cells: HEK-293-T/17
Method: Cell Culture and Electrophysiology. HEK-293-T/17 cells were maintained in Dulbecco's modified Eagle's medium (DMEM) supplemented with 100 μg/mL penicillin, 100 μg/mL streptomycin, and 10% heat inactivated fetal bovine serum. One day before transfection, HEK-T/17 cells were plated at low density on glass coverslips coated with 100 μg/ml poly-D-lysine and 100 μg/ml collagen. Cells were transfected with receptor cDNAs ([…]) in combination with enhanced green fluorescent protein (eGFP) cDNA for visualization of transfected cells. Transfections were carried out with Fugene6 (Roche Applied Science) according to the manufacturer's protocol and used 2-3 days following transfection. Internal solution consisted of 110 mM CsF, 30 mM CsCl, 4 mM NaCl, 0.5 mM CaCl2, 10 mM HEPES, and 5 mM EGTA, and was adjusted to pH=7.3 with CsOH. The external solution contained 150 mM NaCl, 2.8 mM KCI, 2 mM CaCl2, 1 mM MgCl2, and 10 mM HEPES, adjusted to pH=7.3 with NaOH. Patch electrodes from thick-walled borosilicate glass (Warner Instruments, Hamden, Conn.) were pulled to a final resistance of 1.5 to 2.5 MO after fire polishing. […] To determine the pre-desensitization IC50 of selected analogs, several control glutamate (10 mM) applications were followed by a 2.5 minute application of various concentrations of 8-deoxy-neoDH, 9-deoxy-neoDH, or MSVIII-19, after which the analogs were co-applied with glutamate. A similar protocol was followed to measure the recovery of glutamate-evoked currents, with the exception that the analogs were not co-applied with glutamate. Whole cell patch clamp recordings were carried out using an Axopatch 200B amplifier (Axon Instruments). Data were analyzed with Origin 7.5 (OriginLab Corp.), and Prism4 (GraphPad Software Inc.); inhibition-response curves were plotted and fit with a one-site competition curve constrained to fixed minima (0) and maxima (100).
The pharmacological activities of the C2/C4 epimers were determined in patch-clamp assays with GluR5-2a or GluR6a KARs as well as GluR4(i) AMPA receptors.
30 μM 2,4-epi-neoDH reduced glutamate-induced currents from GluR5-2a receptors by −70% while the same concentration reduced glutamate-induced currents from GluR6a receptors by −30% (FIG. 13A). […] We noted that the data derived from recording of the GluR5-2a receptor was poorly fit by the single component logistic curve, particularly at the lower concentrations. This inconsistency may arise from inter-subunit or inter-dimer cooperativity in the inhibitory activity or may be an apparent artifact resulting from run-down of the GluR5-2a receptor currents.

GluR6 = biological target: T2, GluR6 (Rattus norvegicus, UniProt P42260); test: Patch-clamp recordings from transfected HEK 293 cells, Example 1; assay type: cell-based; settings: Example 1, FIG. 5
T2 construct: expressed in transfected cells; HEK 293 (patch clamp)
Method: Non-specific binding was defined in the presence of 1 mM glutamate. The effect of these analogs on electrophysiology was assessed as follows. HEK 293 cells were transfected with receptor cDNAs in combination with eGFP cDNA. Patch-clamp recordings from transfected cells were made 24-72 hours later using a fast application system described previously (Swanson et al., NEURON 1997; 19:913-26). (See FIG. 3.)
The effect of these analogs on electrophysiology also was assessed as described above. […] The results further indicate that the C8 and C9 substituents are necessary for binding to all AMPA and KAR subunits except for GluR5 subunits. The C9 polar group must be present and in the correct spatial orientation for high-affinity GluR5 subunit binding. Inter-domain contacts mediated by residue 721S are critical determinants of binding affinity. The epimer analog 9-deoxy-neoDH mimics the binding affinity of the di-deoxy analog MSVIII-19, but acts as an agonist rather than an antagonist.

GluR5-2b = biological target: T3, GluR5-2b (Rattus norvegicus, UniProt P22756); test: Radioligand binding ([3H]kainate displacement), Example 2
T3 construct: expressed in transfected cells; host or cells: HEK-293-T/17
Method: Radioligand binding. Membrane preparations from HEK-293-T/17 cells were prepared and used in radioligand binding assays as described previously (Sanders et al., 2005). Unlabeled analogs were used to displace [3H]kainate (10-20 nM, PerkinElmer Life and Analytical Sciences, Boston, Mass.) or [3H]AMPA (20 nM, PerkinElmer Life and Analytical Sciences, Boston, Mass.) from KARs and AMPARs, respectively. Nonspecific binding was determined in the presence of 1 mM glutamate. After 1 hour incubation at 4° C., samples were harvested by rapid filtration onto Whatman GF/C membranes. Upon addition of scintillation fluid, membranes were incubated for 1 hour at room temperature. A Beckman LS5000TD scintillation counter was used for quantification (Beckman Coulter Inc., Fullerton, Calif.). Data were plotted and fit with a one-site competition curve with fixed minima and maxima using Prism 4 (GraphPad Software, Inc). Ki's were calculated with the Cheng-Prusoff equation using the determined IC5o values and the radioligand Kd. Data were plotted and fit with a one-site competition curve with fixed minima (0) and maxima (100) (Prism4, GraphPad Software, Inc.). […]
The pharmacological profiles of the Group I analogs, 8-deoxy-neoDH and 9-deoxyneoDH, were analyzed initially in radioligand binding experiments with expressed recombinant AMPA and kainate receptor subunits. […]

GluR5-2a = biological target: T4, GluR5-2a (Rattus norvegicus, UniProt P22756, DEL402-416); settings: Sanders et al., 2005; read-out: IC50 for inhibition of glutamate-evoked currents, GluR5-2a receptors; cited from earlier work
T4 construct: expressed in transfected cells; host or cells: HEK-293-T/17

GluR1(i) = biological target: T5, GluR1(i) (Rattus norvegicus, UniProt P19490); settings: Sanders et al., 2005; cited from earlier work
T5 construct: expressed in transfected cells; host or cells: HEK-293-T/17

GluR5 = biological target: T6, GluR5 (Rattus norvegicus, UniProt P22756); settings: Tables 1-2; comparison values of neoDH and MSVIII-19 (Sanders et al., 2005); read-out: GluR5 binding affinity (displacement of [3H]kainate); cited from earlier work
T6 construct: expressed in transfected cells; HEK 293 (patch clamp)

GluR1 = biological target: T7, GluR1 (Rattus norvegicus, UniProt P19490); settings: Table 1; comparison value of MSVIII-19 (Sanders et al., 2005); read-out: GluR1 binding affinity (displacement of [3H]AMPA); cited from earlier work
T7 construct: expressed in transfected cells; host or cells: COS-7 or HEK-T/17
T7 sequence (P19490 19-907 isoform P19490-2 limits assumed): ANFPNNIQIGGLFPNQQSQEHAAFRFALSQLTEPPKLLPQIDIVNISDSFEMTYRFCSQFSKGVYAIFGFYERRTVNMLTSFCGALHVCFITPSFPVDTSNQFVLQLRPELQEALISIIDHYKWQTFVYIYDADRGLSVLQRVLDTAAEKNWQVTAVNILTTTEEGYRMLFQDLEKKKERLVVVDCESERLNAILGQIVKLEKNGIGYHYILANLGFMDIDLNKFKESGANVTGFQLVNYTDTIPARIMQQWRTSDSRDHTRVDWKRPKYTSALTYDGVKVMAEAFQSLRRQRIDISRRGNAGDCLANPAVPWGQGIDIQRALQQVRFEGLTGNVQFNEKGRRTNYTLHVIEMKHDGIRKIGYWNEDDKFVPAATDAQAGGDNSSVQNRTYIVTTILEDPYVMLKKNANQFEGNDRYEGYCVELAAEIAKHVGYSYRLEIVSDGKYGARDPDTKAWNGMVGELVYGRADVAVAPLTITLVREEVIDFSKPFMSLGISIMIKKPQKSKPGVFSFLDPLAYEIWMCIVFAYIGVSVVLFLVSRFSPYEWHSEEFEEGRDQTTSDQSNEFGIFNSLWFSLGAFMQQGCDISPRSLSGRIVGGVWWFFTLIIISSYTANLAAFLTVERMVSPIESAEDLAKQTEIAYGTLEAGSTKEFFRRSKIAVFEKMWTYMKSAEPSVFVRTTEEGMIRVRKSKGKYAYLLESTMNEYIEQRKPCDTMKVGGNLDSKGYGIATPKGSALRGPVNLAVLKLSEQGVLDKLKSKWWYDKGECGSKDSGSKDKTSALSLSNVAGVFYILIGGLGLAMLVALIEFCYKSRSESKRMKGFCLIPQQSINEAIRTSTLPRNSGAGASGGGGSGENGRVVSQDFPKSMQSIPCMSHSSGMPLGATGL

T1 sequence (P42260 32-908): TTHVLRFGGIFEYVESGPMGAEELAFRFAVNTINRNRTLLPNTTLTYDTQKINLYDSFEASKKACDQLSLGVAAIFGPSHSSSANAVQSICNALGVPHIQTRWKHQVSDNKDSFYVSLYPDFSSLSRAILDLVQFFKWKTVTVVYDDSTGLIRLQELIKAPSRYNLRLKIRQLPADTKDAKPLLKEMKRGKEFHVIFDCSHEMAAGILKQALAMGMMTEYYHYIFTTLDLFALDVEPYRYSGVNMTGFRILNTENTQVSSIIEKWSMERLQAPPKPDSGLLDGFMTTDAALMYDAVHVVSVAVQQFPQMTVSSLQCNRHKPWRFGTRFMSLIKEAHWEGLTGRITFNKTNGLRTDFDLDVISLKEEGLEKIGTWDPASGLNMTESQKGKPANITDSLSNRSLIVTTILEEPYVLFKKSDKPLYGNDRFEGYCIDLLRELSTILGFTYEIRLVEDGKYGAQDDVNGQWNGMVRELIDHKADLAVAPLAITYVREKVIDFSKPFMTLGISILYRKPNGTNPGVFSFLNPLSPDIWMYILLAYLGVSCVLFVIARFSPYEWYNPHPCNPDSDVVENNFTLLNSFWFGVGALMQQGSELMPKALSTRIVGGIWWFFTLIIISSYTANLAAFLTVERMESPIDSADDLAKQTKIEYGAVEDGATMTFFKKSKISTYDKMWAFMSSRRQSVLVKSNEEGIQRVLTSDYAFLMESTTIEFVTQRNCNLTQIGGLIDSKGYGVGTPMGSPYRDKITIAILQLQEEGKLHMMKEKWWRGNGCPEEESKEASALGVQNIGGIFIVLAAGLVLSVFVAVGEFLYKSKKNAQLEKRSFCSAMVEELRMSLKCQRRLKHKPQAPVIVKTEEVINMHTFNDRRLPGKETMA
T3 sequence (P22756 31-905 isoform P22756-2 limits assumed): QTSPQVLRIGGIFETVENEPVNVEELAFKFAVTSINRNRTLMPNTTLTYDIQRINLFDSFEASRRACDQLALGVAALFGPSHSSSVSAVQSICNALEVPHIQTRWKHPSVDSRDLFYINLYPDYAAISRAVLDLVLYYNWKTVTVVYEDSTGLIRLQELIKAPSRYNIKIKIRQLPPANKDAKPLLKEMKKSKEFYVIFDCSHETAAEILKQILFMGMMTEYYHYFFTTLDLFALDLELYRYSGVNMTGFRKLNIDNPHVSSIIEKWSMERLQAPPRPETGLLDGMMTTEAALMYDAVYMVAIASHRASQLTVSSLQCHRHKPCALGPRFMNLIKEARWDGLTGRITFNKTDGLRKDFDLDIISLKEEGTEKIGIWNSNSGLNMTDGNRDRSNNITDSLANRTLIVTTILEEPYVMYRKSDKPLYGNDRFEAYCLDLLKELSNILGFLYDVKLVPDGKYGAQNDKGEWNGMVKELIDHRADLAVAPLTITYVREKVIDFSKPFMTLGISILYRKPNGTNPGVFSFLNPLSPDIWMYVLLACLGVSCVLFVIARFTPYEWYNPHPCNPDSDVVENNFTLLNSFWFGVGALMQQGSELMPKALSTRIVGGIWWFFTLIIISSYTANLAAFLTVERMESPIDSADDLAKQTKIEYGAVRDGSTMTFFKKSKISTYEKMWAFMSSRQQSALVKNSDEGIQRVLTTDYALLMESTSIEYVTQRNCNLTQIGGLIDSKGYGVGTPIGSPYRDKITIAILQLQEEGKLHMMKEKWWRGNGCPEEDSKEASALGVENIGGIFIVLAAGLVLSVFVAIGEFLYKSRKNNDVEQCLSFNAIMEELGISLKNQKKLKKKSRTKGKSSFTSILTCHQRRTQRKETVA
T6 sequence (P22756 with tags, fused parts or gaps isoform P22756-2): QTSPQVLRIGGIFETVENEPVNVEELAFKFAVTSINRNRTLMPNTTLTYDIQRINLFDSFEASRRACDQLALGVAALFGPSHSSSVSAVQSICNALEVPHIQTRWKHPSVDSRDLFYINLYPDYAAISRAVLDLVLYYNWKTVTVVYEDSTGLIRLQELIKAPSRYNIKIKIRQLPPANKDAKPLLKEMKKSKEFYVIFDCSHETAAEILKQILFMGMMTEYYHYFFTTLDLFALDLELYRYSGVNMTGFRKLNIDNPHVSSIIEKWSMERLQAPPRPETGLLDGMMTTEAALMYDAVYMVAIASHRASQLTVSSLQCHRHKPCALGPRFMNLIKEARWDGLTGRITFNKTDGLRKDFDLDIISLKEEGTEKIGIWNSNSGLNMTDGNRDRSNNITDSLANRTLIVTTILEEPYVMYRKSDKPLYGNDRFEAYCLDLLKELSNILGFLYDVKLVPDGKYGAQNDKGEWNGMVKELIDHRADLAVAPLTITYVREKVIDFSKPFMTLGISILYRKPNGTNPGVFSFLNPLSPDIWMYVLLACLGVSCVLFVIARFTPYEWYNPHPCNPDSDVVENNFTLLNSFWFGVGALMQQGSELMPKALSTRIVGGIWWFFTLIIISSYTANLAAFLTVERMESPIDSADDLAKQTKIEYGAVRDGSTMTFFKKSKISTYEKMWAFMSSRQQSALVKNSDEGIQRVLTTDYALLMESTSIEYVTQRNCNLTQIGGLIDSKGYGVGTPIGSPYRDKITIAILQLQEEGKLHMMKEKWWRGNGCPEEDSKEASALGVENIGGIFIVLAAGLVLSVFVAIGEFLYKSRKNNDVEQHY
T4 sequence (P22756 with tags, fused parts or gaps isoform P22756-2 limits assumed, stated change not applied): as the sequence (P22756 with tags, fused parts or gaps isoform P22756-2) above
T5 sequence (P19490 19-907 isoform P19490-2 limits assumed): as the sequence (P19490 19-907 isoform P19490-2 limits assumed) above
T2 sequence (P42260 32-908): as the sequence (P42260 32-908) above

SMILES: N[C@@H](C[C@@]1(C(=O)O)CC2OCC(O)C(O)C2O1)C(=O)O (single isomer, unassigned) [2,4-epi-neoDH, 2,4-epi-neodysiherbaine]
- recovery of glutamate-evoked currents after analog application, GluR6a (GluR6a; 30 μM analog): current amplitudes recovered more slowly
- reduction of glutamate-induced currents from GluR6a receptors (GluR6a; 30 μM analog): ~30%
- pIC50 (GluR6a; 10 mM glutamate in continued presence of analog, read-out: IC50 inhibition of glutamate-evoked currents, GluR6a): 4.13
- agonist activity: analog-evoked currents from GluR6a receptors (words) (GluR6a): failed to elicit detectable current; also recorded: antagonist (or possibly a very weak partial agonist); also recorded: fails to activate GluR5 or GluR6 receptors, even at 100 μM
- agonist activity: analog-evoked currents from GluR6a receptors (words) (GluR6a; listed as 2,4-epineoDH): fails to activate

SMILES: N[C@@H](C[C@@]1(C(=O)O)CC2OCC(O)C(O)C2O1)C(=O)O (single isomer, unassigned) [4-epi-neoDH, 4-epi-neodysiherbaine]
- recovery of glutamate-evoked currents after analog application, GluR6a (GluR6a; 30 μM analog): only exhibited a transient desensitization
- agonist activity: analog-evoked currents from GluR6a receptors (words) (GluR6a): evoked small but detectable currents; also recorded: elicits large currents; also recorded: activates
- agonist or antagonist at GluR6 (electrophysiology) (GluR6): GluR5/GluR6 antagonist

SMILES: N[C@@H](C[C@]1(C(=O)O)C[C@H]2OC[C@@H](O)C[C@H]2O1)C(=O)O [8-deoxy-neoDH]
- pKi (GluR5-2b): 8.70

SMILES: N[C@@H](C[C@]1(C(=O)O)C[C@H]2OCCC[C@H]2O1)C(=O)O [MSVIII-19, 8,9-dideoxy-neoDH]
- pIC50 (GluR5-2a): 7.64
- pKi (GluR1(i)): < 4.00
- pKi (GluR5): 6.89
- pKi (GluR1): < 4.00
